Results published in the supplement of paper PMC10307832.

How the values were obtained:
Assay in all cases: relative viability (nuclei count vs DMSO), 5 days (fraction); higher = more cells survive
A-427 = system: A-427
Summary of the method: (§1)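 Lung cancer cell lines were pin-tool dosed in 1536-well plates on the day after seeding, with either a lone drug or a fixed anchor-drug dose plus five library-drug doses (not always all listed) in √10 steps. Nuclei were counted on 4× images after 5 days. Relative viability is the ratio of treated-well to vehicle-well nuclei counts, with each value a median of duplicate plates.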

NCI-H2347 = system: NCI-H2347
Summary of the method: as §1

BEN = system: BEN
Summary of the method: as §1

NCI-H661 = system: NCI-H661
Summary of the method: as §1

NCI-H460 = system: NCI-H460
Summary of the method: as §1

EKVX = system: EKVX
Summary of the method: as §1

EPLC-272H = system: EPLC-272H
Summary of the method: as §1

NCI-H2087 = system: NCI-H2087
Summary of the method: as §1

EMC-BAC-2 = system: EMC-BAC-2
Summary of the method: as §1

NCI-H520 = system: NCI-H520
Summary of the method: as §1

LK-2 = system: LK-2
Summary of the method: as §1

LXF-289 = system: LXF-289
Summary of the method: as §1

SW 1573 = system: SW 1573
Summary of the method: as §1

SW 900 = system: SW 900
Summary of the method: as §1

COR-L23 = system: COR-L23
Summary of the method: as §1

NCI-H2228 = system: NCI-H2228
Summary of the method: as §1

NCI-H1650 = system: NCI-H1650
Summary of the method: as §1

NCI-H1793 = system: NCI-H1793
Summary of the method: as §1

NCI-H1915 = system: NCI-H1915
Summary of the method: as §1

NCI-H1651 = system: NCI-H1651
Summary of the method: as §1

NCI-H358 = system: NCI-H358
Summary of the method: as §1

COCC1(CO)C(=O)C2CCN1CC2 (stereo unspecified) [PRIMA-1MET] + COc1cc2c(Oc3ccc(NC(=O)C4(C(=O)Nc5ccc(F)cc5)CC4)cc3F)ccnc2cc1OCCCN1CCOCC1 [Foretinib] (partner 0.25 µM)
relative viability (A-427; first compound 0.2 µM): 0.902 | relative viability (A-427; first compound 0.6325 µM): 0.837 | relative viability (A-427; first compound 2 µM): 0.895 | relative viability (A-427; first compound 6.325 µM): 0.983 | relative viability (A-427; first compound 20 µM): 0.953 | relative viability (NCI-H2347; first compound 0.2 µM): 0.876 | relative viability (NCI-H2347; first compound 0.6325 µM): 0.724 | relative viability (NCI-H2347; first compound 6.325 µM): 1.1 | relative viability (NCI-H2347; first compound 20 µM): 0.814 | relative viability (BEN; first compound 0.2 µM): 0.653 | relative viability (BEN; first compound 0.6325 µM): 0.586 | relative viability (BEN; first compound 6.325 µM): 0.741 | relative viability (BEN; first compound 20 µM): 0.954 | relative viability (NCI-H661; first compound 0.2 µM): 1.07 | relative viability (NCI-H661; first compound 0.6325 µM): 1 | relative viability (NCI-H661; first compound 2 µM): 0.975 | relative viability (NCI-H661; first compound 6.325 µM): 0.988 | relative viability (NCI-H661; first compound 20 µM): 0.979 | relative viability (NCI-H460; first compound 0.2 µM): 1.08 | relative viability (NCI-H460; first compound 0.6325 µM): 0.949 | relative viability (NCI-H460; first compound 2 µM): 0.963 | relative viability (NCI-H460; first compound 6.325 µM): 0.944 | relative viability (NCI-H460; first compound 20 µM): 0.359 | relative viability (EKVX; first compound 0.2 µM): 0.988 | relative viability (EKVX; first compound 0.6325 µM): 0.518 | relative viability (EKVX; first compound 6.325 µM): 1.1 | relative viability (EKVX; first compound 20 µM): 0.843 | relative viability (EPLC-272H; first compound 2 µM): 0.603 | relative viability (EPLC-272H; first compound 6.325 µM): 0.896 | relative viability (EPLC-272H; first compound 20 µM): 0.105 | relative viability (NCI-H2087; first compound 0.2 µM): 1.29 | relative viability (NCI-H2087; first compound 0.6325 µM): 1.17 | relative viability (NCI-H2087; first compound 2 µM): 0.932 | relative viability (NCI-H2087; first compound 6.325 µM): 1.02 | relative viability (NCI-H2087; first compound 20 µM): 0.632 | relative viability (EMC-BAC-2; first compound 0.2 µM): 1.17 | relative viability (EMC-BAC-2; first compound 0.6325 µM): 1.01 | relative viability (EMC-BAC-2; first compound 6.325 µM): 1.04 | relative viability (EMC-BAC-2; first compound 20 µM): 1.03 | relative viability (NCI-H520; first compound 0.2 µM): 0.794 | relative viability (NCI-H520; first compound 0.6325 µM): 0.62 | relative viability (NCI-H520; first compound 2 µM): 0.669 | relative viability (NCI-H520; first compound 6.325 µM): 0.715 | relative viability (NCI-H520; first compound 20 µM): 0.0989 | relative viability (LK-2; first compound 0.2 µM): 1.4 | relative viability (LK-2; first compound 0.6325 µM): 1.16 | relative viability (LK-2; first compound 2 µM): 0.567 | relative viability (LK-2; first compound 6.325 µM): 0.752 | relative viability (LK-2; first compound 20 µM): 0.147 | relative viability (LXF-289; first compound 0.2 µM): 1.05 | relative viability (LXF-289; first compound 0.6325 µM): 0.95 | relative viability (LXF-289; first compound 2 µM): 0.993 | relative viability (LXF-289; first compound 6.325 µM): 1.02 | relative viability (LXF-289; first compound 20 µM): 0.949 | relative viability (SW 1573; first compound 0.2 µM): 1.36 | relative viability (SW 1573; first compound 0.6325 µM): 0.404 | relative viability (SW 1573; first compound 2 µM): 0.777 | relative viability (SW 1573; first compound 6.325 µM): 0.485 | relative viability (SW 1573; first compound 20 µM): 0.0333 | relative viability (SW 900; first compound 0.2 µM): 0.928 | relative viability (SW 900; first compound 0.6325 µM): 1.13 | relative viability (SW 900; first compound 2 µM): 0.699 | relative viability (SW 900; first compound 6.325 µM): 0.451 | relative viability (SW 900; first compound 20 µM): 0.051 | relative viability (COR-L23; first compound 0.2 µM): 1.23 | relative viability (COR-L23; first compound 0.6325 µM): 0.956 | relative viability (COR-L23; first compound 2 µM): 0.95 | relative viability (COR-L23; first compound 6.325 µM): 1.06 | relative viability (COR-L23; first compound 20 µM): 0.0732 | relative viability (NCI-H2228; first compound 0.2 µM): 0.973 | relative viability (NCI-H2228; first compound 0.6325 µM): 0.938 | relative viability (NCI-H2228; first compound 2 µM): 0.87 | relative viability (NCI-H2228; first compound 6.325 µM): 0.952 | relative viability (NCI-H2228; first compound 20 µM): 0.0309 | relative viability (NCI-H1650; first compound 0.2 µM): 1.45 | relative viability (NCI-H1650; first compound 0.6325 µM): 1.03 | relative viability (NCI-H1650; first compound 2 µM): 1.1 | relative viability (NCI-H1650; first compound 6.325 µM): 0.924 | relative viability (NCI-H1650; first compound 20 µM): 0.364 | relative viability (NCI-H1793; first compound 0.2 µM): 0.858 | relative viability (NCI-H1793; first compound 0.6325 µM): 0.563 | relative viability (NCI-H1793; first compound 6.325 µM): 0.846 | relative viability (NCI-H1793; first compound 20 µM): 0.491 | relative viability (NCI-H1915; first compound 0.2 µM): 1.12 | relative viability (NCI-H1915; first compound 0.6325 µM): 0.958 | relative viability (NCI-H1915; first compound 6.325 µM): 1.08 | relative viability (NCI-H1915; first compound 20 µM): 1.05 | relative viability (NCI-H1651; first compound 0.2 µM): 0.87 | relative viability (NCI-H1651; first compound 0.6325 µM): 0.578 | relative viability (NCI-H1651; first compound 2 µM): 0.77 | relative viability (NCI-H1651; first compound 6.325 µM): 0.933 | relative viability (NCI-H1651; first compound 20 µM): 0.827 | relative viability (NCI-H358; first compound 0.2 µM): 0.881 | relative viability (NCI-H358; first compound 2 µM): 0.592 | relative viability (NCI-H358; first compound 6.325 µM): 0.634 | relative viability (NCI-H358; first compound 20 µM): 0.0429
